These results are taken from US9320771B2, “TTO-based wide spectrum therapeutics, disinfectants and anesthetics for use in aquaculture” (priority 2006, dated 2016).

Assay [1] deals with viral diseases of fish. The note with it: cited from earlier work.
The subject of assay [2] is atypical Aeromonas salmonicida. The assay can be described thus: Culture and sensitivity test, zones of inhibition on T.S.A. culture media. The note with it: 24 h at 24° C.; for zone of inhibition at 30 µg/disc: Aeromonas salmonicida, 24 h, read-out: Zones of inhibition (mm) after 24 h. The class given is cell-based. How it is done: Four TTO-based compositions of the present invention, namely Compositions A-D (See Example 7) were evaluated in their efficacy to inhibit and prevent growth of atypical Aeromonas salmonicida, the causative agent of ulcerative disease of carps on T.S.A. culture media. Every culture plate was inoculated with Gram-negative Aeromonas Bacteria obtained from ulcerated Goldfish. Plates were sterile cultures incubated for 24 h at a temperature of 24° C. Inhibition of the TTO-based compositions was compared simultaneously with 2 familiar anti-bacterial medications, namely (i) Tetracycline (30 μg per disc); and (ii), Norfloxacin (10 30 μg per disc). Comparison discs were supplemented in the lab with 20 to 30 μg of the TTO-based compositions each: 50% Composition D; 50% Composition C; and 66% Composition B (See Example 7).

Assay [3] deals with Red-clawed Crayfish (Cherax Quadricarinatus). The assay can be described thus: Growth rate of Red-clawed Crayfish. The class given is in vivo. The note with it: compared to the control group as base reference. On the procedure:
In a separate experiment the growth rate of Red-clawed Crayfish treated with the TTO formulation was tested in comparison to an untreated tank and to two other disinfecting agents: formaldehyde and sodium bromide (e.g., commercially available Bromex™).

Like-named read-outs stand apart in the source and are kept apart here.

Turning to `CN(C)c1ccc(C(=C2C=CC(=[N+](C)C)C=C2)c2ccccc2)cc1` [malachite green], the “effectiveness against viral diseases of fish” value in assay [1] is “not effective”. Take `CCn1cc(C(=O)O)c(=O)c2cc(F)c(N3CCNCC3)cc21` [Norfloxacin]: the “Zones of inhibition (mm) after 24 h” value in assay [2] (10 30 μg per disc, listed as Nx.) is recorded as 20 mm. For the same molecule, the zone of inhibition at 30 µg/disc in assay [2] (10 30 μg per disc) was found to be 28 mm.

Consider `C=O` [formaldehyde], for which, in assay [3], the growth rates entry is listed as “about 0.08 % per day”. As to `CN(C)[C@@H]1C(O)=C(C(N)=O)C(=O)[C@@]2(O)C(O)=C3C(=O)c4c(O)cccc4[C@@](C)(O)[C@H]3C[C@@H]12` [Tetracycline], in assay [2] (30 μg per disc), the “Zones of inhibition (mm) after 24 h” value amounted to 22 mm and the zone of inhibition at 30 µg/disc amounted to 18 mm.
